Assay results published in US20250066468A1, “LIPOSOME ENCAPSULATED AFFINITY DRUG” (L.E.A.F. HOLDINGS GROUP LLC, priority 2014, published 2025).

How the values were obtained:
CD34+ stem cells = experiment: Neutrophil differentiation of CD34+ stem cells, flow cytometry; assay type: cell-based, human; details: pemetrexed 2-50 μM; day 2; n=4 donors
Experimental: Experiments were performed as follows: CD34+ stem cells were obtained from ATCC. CD34+ cells were thawed at 37° C. for 1 minute. While on ice, the cells were transferred to cold stem cell medium (“StemSpan SFEM”-Stem Cell Tech. cat. #9650), 10% heat […] fetal bovine serum (HI FBS.) Each vial contained approximated 5×10^5 cell/ml. The cells were placed in 96 well tissue culture plates 35,000 cell/well. The neutrophils GROWTH media contained 100 ng/ml of stem cell factor human (SCF-Sigma H8416, lot #MKB[…]), 20 ng/ml of granulocyte colony-stimulation factor, human (G-CSF-Sigma H5541, lot #SLB[…]), 10 ng/ml of IL3 recombinant human (Sigma SRP3090, lot #1008AFC13) in […] media as above. […] The cells shown in the circle on the plots are maturing neutrophils expressing Mac-1 and CD34.

[1] = tested on: phosphorylated p38 in SL0003 lung cancer cells; experiment: p38 phosphorylation (PhosFlow); assay type: cell-based; details: 30 minutes, pemetrexed at 10 μM and 50 μM
Experimental: A second measure of sample liposome entering the cell is intracellular activation pathways. Cells respond to ligands binding to their receptors by activating kinases, in this case p38. The activated kinases can be measured by flow cytometry. The cells are incubated with sample liposome for 30 minutes and then lysed with a mild detergent. The activated p38 kinase is detected with an antibody by flow cytometry. A shift under the red line gate indicates a higher level of phosphorylated p38 (See FIG. 18A and 18BG). Cancer cells may have a higher basal level of activated kinases.
In addition, for FIG. 17, measuring p38 phosphorylation (PhosFlow) SL0003, normal colon cells, and normal breast cells were seeded at 10,000 cells/well. Cells were treated with: Fresh Pemetrexed ([…]), LEAF-001 (Liposome 070715 MPF; 5traut/50 Mab, 15traut/50Mab, 45traut/50Mab) (13.33× dilution), anti-folate receptor alpha (MABFRA H/L 1.01 mg/ml) (13.33× dilution) to determine the effect of the antibody in sample liposome, or no treatment. The cells were gently mixed and quickly placed in incubator. At each time point (30 minutes-4 hours), the plates were removed from the incubator and immediately fixed with formaldehyde for a final concentration of 2%. The plates were incubated for 5 minutes at room temperature. 25 μl of media was removed. […] The cells were read on the flow cytometer (in FL2).

[2] = neutral pH; cited from earlier work
[3] = tested on: SL0003 (lung cancer) cells; experiment: Cell cycle by propidium iodide DNA staining, flow cytometry; assay type: cell-based; details: titrated concentrations, day 5
Experimental: SL0003 (lung cancer) cells were prepared as described in the Example describing MTS assays (Example 5).
For this assay, the cells were cultured for 4 or 5 days (shown is day 5.). More specifically, […] cells (lung adenocarcinoma) were seeded in 96 well plates and treated the next day with titrated concentrations of LEAF-001 or pemetrexed. At day 5, cells were lysed with FACS buffer, 0.2% triton X-100, 0.3% formaldehyde. The DNA was stained with Propidium Iodine for 30 minutes […] to evaluate cell cycle
The cells were washed and evaluated by flow cytometry (FL2). FIG. 22A depicts a schematic showing the cell cycle. By inhibiting the formation of precursor purine and pyrimidine nucleotides, pemetrexed prevents the formation of DNA and RNA, which are required for the growth and survival of both normal cells and cancer cells.

neutrophil differentiation (CD34+ stem cells): neutrophil differentiation is inhibited
Structure (SMILES): Nc1nc2[nH]cc(CCc3ccc(C(=O)N[C@@H](CCC(=O)O)C(=O)O)cc3)c2c(=O)[nH]1 [pemetrexed, Pemetrexed disodium heptahydrate]
effect on p38 activation [1]: reduces p38 activation
solubility [2]: 100 mg/mL
cell cycle effect (accumulation in S phase) [3]: induces cells to accumulate in S phase
